These results are taken from ChEMBL document CHEMBL6103639, “Structure-Based Development of 3,4-Fused Tricyclic Benzofuran Derivatives as Polyketide Synthase 13 Inhibitors with Negligible hERG Inhibition” (J Med Chem, 2025).

The structures appear in SMILES notation.

Holding throughout (type): functional
Assay [1] concerns Mycobacterium tuberculosis. In words: Antitubercular activity against Mycobacterium tuberculosis D1644G mutant assessed as reduction in microbial growth by microplate alamar blue assay.
Assay [2] relates to Mycobacterium tuberculosis. In words: Antitubercular activity against Mycobacterium tuberculosis N1640K mutant assessed as reduction in microbial growth by microplate alamar blue assay.
Assay [3] has as its system Mycobacterium tuberculosis. As to the kind of experiment: Antitubercular activity against Mycobacterium tuberculosis N1640S mutant assessed as reduction in microbial growth by microplate alamar blue assay.
In assay [4] the test system is Mycobacterium tuberculosis. As to the kind of experiment: Antitubercular activity against Mycobacterium tuberculosis A1667V mutant assessed as reduction in microbial growth by microplate alamar blue assay.

On to `CN1CN(C2CCCC2)Cc2c(O)ccc3oc(-c4ccc(O)cc4)c(c23)C1=O`, for which the MIC in assay [1] is >64 µg/mL; in assay [2], >64 µg/mL; in assay [3], >64 µg/mL; in assay [4] it was 32 µg/mL.
As to `CN1CN(CC2CC2)Cc2c(O)ccc3oc(-c4ccc(O)cc4)c(c23)C1=O`, the MIC in assay [1], in assay [2], in assay [3] and in assay [4] was >64 µg/mL throughout.
`CN1CN(CC2CCC2)Cc2c(O)ccc3oc(-c4ccc(O)cc4)c(c23)C1=O`: the MIC in assay [1] was >64 µg/mL; in assay [2], >64 µg/mL; in assay [3] it was >64 µg/mL; in assay [4], 8 µg/mL.
